Tests used:
[1] = system: OLAC Wistar female rats; assay: Gastric irritancy test; format: in vivo; conditions: fasted rats, stomachs inspected 4 hours later
Protocol: (§1) 2. Gastric Irritancy Test
(§2) Groups of OLAC Wistar female rats (130 - 160 g) were fasted overnight (18 hours) before receiving orally the compound of Example 1. 4 Hours later the stomachs were removed and inspected for the presence of erosion of the gastric mucosa.

[2] = Gastric irritancy test; format: in vivo, rats; conditions: rat, in vivo, po
Protocol: as §1, §2

[3] = Therapeutic ratio from the carrageenin test and the gastric irritancy test; format: in vivo, rats; conditions: from the two tests (gastric irritancy ED50 / carrageenin ED25)
Protocol: (§3) Groups of 8 OLAC Wister male rats (140 - 170 g) received the compound of Example 1 orally 1 hour before 0.1 ml of 0.5% λ carrageenin injected into the right hind paw. Paw volumes were measured by mercury displacement 3 hours after carrageenin.
as §2
From these two tests the therapeutic ratio for the compound of formula (EI) was 41.0.

[4] = system: OLAC Wister male rats; assay: Carrageenin test (rat paw oedema); format: in vivo; conditions: for Paw volume ± s.e. / % Inhi-bition: paw volume 3 hours after carrageenin; for Paw volume ± s.e.: control 85.8 ± 9.4
Protocol: 1. Activity in the Carrageenin Test
as §3

CC(=O)CC1CCn2c(C(=O)c3ccccc3)ccc21 (centres unmarked) [Example 1, 1-(5-Benzoyl-2-3-dihydro-1H-pyrrolazin-1-yl)-propan-2-one]
Proportion of rats with gas-tric erosions ([1]; oral dose 3.7 mg/kg): 0/8 | Proportion of rats with gas-tric erosions ([1]; oral dose 11.2 mg/kg): 1/8 | Proportion of rats with gas-tric erosions ([1]; oral dose 33.6 mg/kg): 4/8 | TD50 at 4 h [2]: 30.8 mg/kg | therapeutic ratio [3]: 41.0 | ED25 ([4]; Rattus norvegicus, oral, carrageenin paw volume, rats): 0.75 mg/kg | Paw volume ± s.e. ([4]; oral dose 0.1 mg/kg 1 hour before carrageenin): 92.6 ± 4.6 | % Inhi-bition ([4]; oral dose 0.1 mg/kg): -8.0% | Paw volume ± s.e. ([4]; oral dose 0.5 mg/kg 1 hour before carrageenin): 73.4 ± 7.8 | % Inhi-bition ([4]; oral dose 0.5 mg/kg): 14.4% | % Inhi-bition ([4]; oral dose 2.5 mg/kg): 47.4%

Source: patent EP0091181A2, “Aroyl pyrrolizine compounds, process for their preparation and pharmaceutical compositions containing them” (BEECHAM GROUP PLC, priority 1982, dated 1983)
